Experimental data reported in patent US9157099B2, “Methods for preparing a hydrocarbon” (SHELL OIL COMPANY, priority 2012, dated 2015).
“Also recorded” adds a separate entry of the source. One block for each molecule: values may come before it.

Legend:
[1] = biological target: T1, purified His-Fdc1/Pad1 (Saccharomyces cerevisiae, UniProt Q03034); assay: UV-VIS spectroscopy of substrate consumption, Michaelis Menten parameters; settings: for Kcat: substrate of purified His-Fdc1/Pad1, pH 6, 20° C.
T1 sequence (Q03034 1-503): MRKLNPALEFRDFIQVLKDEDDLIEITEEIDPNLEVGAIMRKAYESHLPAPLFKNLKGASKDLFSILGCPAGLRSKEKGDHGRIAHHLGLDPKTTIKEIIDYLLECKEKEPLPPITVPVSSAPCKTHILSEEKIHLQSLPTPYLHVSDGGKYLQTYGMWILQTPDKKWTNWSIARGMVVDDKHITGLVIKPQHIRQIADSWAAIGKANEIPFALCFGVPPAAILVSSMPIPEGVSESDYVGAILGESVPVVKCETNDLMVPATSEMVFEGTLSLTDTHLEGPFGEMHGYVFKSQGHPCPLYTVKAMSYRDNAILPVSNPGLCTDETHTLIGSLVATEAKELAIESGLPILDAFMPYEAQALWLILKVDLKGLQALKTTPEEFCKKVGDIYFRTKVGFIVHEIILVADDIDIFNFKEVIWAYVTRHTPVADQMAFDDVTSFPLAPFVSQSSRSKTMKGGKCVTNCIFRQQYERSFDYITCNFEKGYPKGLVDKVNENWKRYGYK
Procedure: A direct observation of enzyme activity is possible by recording UV-VIS spectra of the solution. Aromatic substrates and aliphatic substrates with two or more double bonds conjugated to the acidic group absorb in the UV region. The activity of purified His-Fdc1/Pad1 was assayed against varying concentrations of these substrates in 400 μl 50 mM KCl, 50 mM NaPi pH 6 in a 1 mm pathlength cuvette at 20° C. Substrate consumption was monitored using a Cary 50 Bio spectrophotometer (varian) either in scanning mode, or at a specific wavelength for kinetic experiments. The rate of cinnamic acid consumption was monitored at 270 nm, ferulic acid at 312 nm, 2,4-pentadienoic acid at 242 nm, sorbic acid at 260 nm, 2,4,6-octatrienoic acid at 290 nm and 2,4-nonadienoic acid at 260 nm.

[2] = biological target: T2, fdc1/pad1 in pCOLAduet in E. coli Bl21(DE3) (Saccharomyces cerevisiae, UniProt Q03034); assay: head space GC-MS product analysis, in vivo (induced cultures); format: cell-based; settings: E. coli cultures expressing Fdc1/Pad1, 25° C.
T2 construct: expressed in transfected cells; host or cells: E. coli Bl21(DE3) carrying fdc1 (MCS1) and pad1 (MCS2) in pCOLAduet-1
T2 sequence (Q03034 1-503): T1 sequence (Q03034 1-503)
Procedure: For in vivo analysis, fdc1/pad1 in pCOLAduet and empty pCOLAduet in E. coli Bl21(DE3) were grown in LB supplemented with 40 μg/ml kanamycin at 37° C. to an OD600 of about 0.7 and induced with […] IPTG. 11.5 ml induced culture and a solution of 3.5 ml 20 mM substrate in distilled water with a pH of about 7.5 were placed in 20 ml head space vials with crimp top seals. Cultures were incubated in shaking incubator at 25° C. for about 12-48 hours.
(§1) Samples were analysed by GC-MS using a Thermofisher DSQ II. Vials were incubated for 3 minutes at 80° C. with agitation. 0.5 ml headspace was injected with a 105° C. syringe and a split ratio of 1/10. Analytes were separated on a 30 m 0.25 mm 0.25μ ZB5-MS (commercially obtainable from Zebron) column run (alternatively a 30 m×0.25 mm i.d.×0.1μ Varian VF-5HT column may be used) with a flow of 1.5 ml/min He. Oven temperature was held at 35° C. for 2 minutes before being ramped up to 250° C. at 10° C./min. Products were identified by searching for the corresponding mass peak.
As described above, for in vivo studies, Fdc1/Pad1 in pCOLAduet-1 and empty pCOLAduet-1 vector were transformed into E. coli Bl21(DE3). Cultures were grown in LB supplemented with 40 μg/ml kanamycin at 37° C. to OD600˜0.7 and induced with 1 mM IPTG. 11.5 ml of induced culture was added to 3.5 ml 20 mM substrate pH ˜7.5 per tube in a sealed headspace vial.
(§2) All Fdc1/Pad1 reactions were incubated in a shaking incubator at 25° C. for ˜36 hours.
as §1, with “(or” for “(commercially obtainable from Zebron) column run (alternatively a”, “VF-5HT)” for “VF-5HT”, “run” for “may be used)”, “raised” for “ramped up”

[3] = biological target: T3, Fdc1/Pad1 (Saccharomyces cerevisiae, UniProt Q03034); assay: Fdc1/Pad1 substrate range, in vivo and in vitro (summary); settings: summary of substrate range
T3 construct: His (N); made in house; host or cells: E. coli Bl21(DE3), pCOLAduet-1
T3 sequence (Q03034 1-503): T1 sequence (Q03034 1-503)
Source text: To assess what limit the enzyme imposes on the extent of unsaturation, the inventors tested a wide range of saturated and unsaturated substrates, both in vivo and in vitro.

[4] = biological target: T1, purified His-Fdc1/Pad1; assay: head space GC-MS product analysis, in vitro reactions; format: biochemical; set-up: His (N); made in house; host or cells: E. coli Bl21(DE3), pCOLAduet-1 co-expression plasmid, Ni-NTA purified; settings: purified enzyme, 25° C.
Procedure: For in vitro analysis, purified His-Fdc1/Pad1 polypeptide was buffer exchanged into a solution of 150 mM NaCl and 50 mM NaPi in water with pH 7.5. Subsequently solutions of 11.5 ml 150 mM NaCl and 50 mM NaPi with pH 7.5, of 3.5 ml 20 mM substrate with pH 7.5 and of 150 μl 30 mg/ml enzyme in water or buffer were added to 20 ml head space vials with crimp top seals. Reactions were incubated with shaking at 25° C. for about 12-48 hours.
as §1
For in vitro reactions, Fdc1/Pad1 partially purified by Ni^2+ affinity and buffer exchanged into 150 mM NaCl, 50 mM NaPi pH 7.5. 11.5 ml […] pH 7.5, 3.5 ml 20 mM substrate pH 7.5 and 150 μl 30 mg/ml enzyme or enzyme free buffer were added to a sealed headspace vial.
as §2
as §1, with “(or” for “(commercially obtainable from Zebron) column run (alternatively a”, “VF-5HT)” for “VF-5HT”, “run” for “may be used)”, “raised” for “ramped up”

[5] = biological target: E. coli Bl21(DE3) cells containing the fdc1/pad1 co-expression plasmid (Saccharomyces cerevisiae, UniProt Q03034); settings: 6 mM sorbic acid, pH 6.2, overnight at 37° C.
Procedure: In vivo enzyme activity assays were carried out using exogenous supplied substrates in the media (i.e. sorbic acid).
For in vivo pH assays, LB agar plates were supplemented with […] kanamycin, 6 mM sorbic acid and 0.004% w/v phenol red in distilled water and buffered to pH 6.2. E. coli Bl21(DE3) cells containing either the co-expression plasmid or empty pCOLAduet-1 were inoculated onto the plate and grown overnight at 37° C. […] This allows rapid visual indication of enzyme activity levels.

[6] = substrate: C/C=C/C=C/C(=O)O; assay: purified protein, by the assay type; settings: other: substrate of purified His-Fdc1/Pad1, pH 6, 20° C.
[7] = substrate: C=CC=CC(=O)O; assay: purified protein, by the assay type; settings: other: substrate of purified His-Fdc1/Pad1, pH 6, 20° C.
[8] = substrate: CC=CC=CC=CC(=O)O; assay: purified protein, by the assay type; settings: other: substrate of purified His-Fdc1/Pad1, pH 6, 20° C.
[9] = substrate: CCCCC=CC=CC(=O)O; assay: purified protein, by the assay type; settings: other: substrate of purified His-Fdc1/Pad1, pH 6, 20° C.
[10] = substrate: COc1cc(/C=C/C(=O)O)ccc1O; assay: purified protein, by the assay type; settings: other: substrate of purified His-Fdc1/Pad1, pH 6, 20° C.
[11] = substrate: O=C(O)C=Cc1ccccc1; assay: purified protein, by the assay type; settings: other: substrate of purified His-Fdc1/Pad1, pH 6, 20° C.

decarboxylation product formation by GC-MS, in vivo [2]: only been detected in vivo
decarboxylation product formation by GC-MS, in vivo ([2]; listed as 2-octenoic acids): In vivo activity has also been detected
Molecule: CCCCCC=CC(=O)O [2-Octenoic acid]

in vitro and in vivo activity (decarboxylation) [3]: high
Molecule: CCCCC=CC=CC(=O)O [2,4-Nonadienoic acid]

in vitro and in vivo activity (decarboxylation) [3]: high
Molecule: C=CC=CC(=O)O [2,4-Pentadienoic acid]

decarboxylation product formation by GC-MS, in vivo [2]: also been detected in vivo
in vitro and in vivo activity (decarboxylation) [3]: Lower level activity
Molecule: CCCC=CC(=O)O [2-Hexenoic acid]
decarboxylation product formation by GC-MS, in vitro [4]: 1-pentene product has been detected and enzyme-catalysed production of 1-pentene

Continued, molecule first:

Molecule: COc1cc(/C=C/C(=O)O)ccc1O [Ferulic acid]
Kcat [1]: 30.774 s⁻¹
decarboxylation product formation by GC-MS, in vivo [2]: verified the presence of the anticipated decarboxylation products
in vitro and in vivo activity (decarboxylation) [3]: high
decarboxylation product formation by GC-MS, in vitro [4]: confirmed product formation

Molecule: C/C=C/C=C/C(=O)O [Sorbic acid]
Kcat [1]: 2.793 s⁻¹
decarboxylation product formation by GC-MS, in vivo [2]: verified the presence of the anticipated decarboxylation products
substrate dependent alkalinification in vivo [5]: yellow to red colour change observed
in vitro and in vivo activity (decarboxylation) [3]: high
decarboxylation product formation by GC-MS, in vitro [4]: confirmed product formation

Molecule: CCCCC=CC(=O)O [2-Heptenoic acid]
decarboxylation product formation by GC-MS, in vivo [2]: only been detected in vivo; also recorded: In vivo activity has also been detected

Molecule: O=C(O)C=Cc1ccccc1 [Cinnamic acid]
Kcat [1]: 34.394 s⁻¹
decarboxylation product formation by GC-MS, in vivo [2]: verified the presence of the anticipated decarboxylation products; also recorded: confirming styrene production
in vitro and in vivo activity (decarboxylation) [3]: high
decarboxylation product formation by GC-MS, in vitro [4]: confirmed product formation; also recorded: confirming styrene production

Molecule: CC=CC=CC=CC(=O)O [2,4,6-Octatrienoic acid]
enzyme dependent spectral changes / conversion by UV-VIS [1]: enzyme catalysed conversion
in vitro and in vivo activity (decarboxylation) [3]: high

B1: purified His-Fdc1/Pad1 (Saccharomyces cerevisiae S288C) (protein)
chain: T1 sequence (Q03034 1-503)
Km [6]: 81 µM
Km [7]: 109 µM
kcat [7]: 0.336 s⁻¹
Km [8]: 213 µM
kcat [8]: 99 s⁻¹
Km [9]: 221 µM
kcat [9]: 0.588 s⁻¹
Km [10]: 203 µM
Km [11]: 21 µM
